Legend:
Type in all cases: biochemical
[1] = test system: γ-crystallin; assay: Circular dichroism of modified γ-crystallin (secondary structure); conditions: 0.5 mg/mL, 22° C., versus native protein
Procedure: Crystallin samples were dialyzed overnight into 10 mM Na2HPO4/NaH2PO4 buffer pH 6.8 and measured at a concentration of 0.5 mg/mL. CD spectra were measured on a Jasco J715 spectropolarimeter at 22° C. using a quartz cell of 1 mm path length.

[2] = test system: γ-crystallin; assay: DLS, aggregation of γ-crystallin (stated for γD and γS together); conditions: dilute solution, 22° and 37° C.
Procedure: Scattering intensity was measured at angles between 30° and 90° at 5° intervals, corresponding to a scattering wave vector (q) range between 8.41×10^6 and 2.30×10^7 m^−1. The scattering wave vector is defined as q=4πn sin (θ/2)/λ, where θ is the scattering angle, and λ=514.5, the wavelength of the argon laser in vacuum, and n is 1.33, the refractive index of water. The temperature of the sample was held at constant temperature of 4 to 37±0.1° C. by a circulating water bath.
The correlation function was analyzed using CONTIN analysis to calculate lag times for the correlation functions at measured angles. The peaks represent the diffusive mode of the proteins. The delay times (τ) were converted to Γ and graphed versus q^2. The slope of the fitted line is the diffusion coefficient (D). The lines are fitted such that the intercept is zero because a non-zero value of q=0 is unphysical. The Γ versus q^2 plots were linear with r^2 values of 0.95 or greater.
All solutions were filtered with 0.22 μm hydrophobic PVDF membranes (Fisher Scientific) into 10 mm diameter borosilicate glass tubes and sealed. Solutions were allowed to equilibrate for thirty minutes prior to measuring light scattering.
γ-crystallins were subjected to a variety of experimental conditions, including a range of pHs (5, 6, 7, 8, 9, 10, 11), concentrations of KCl (100 mM, 150 mM, 300 mM, 500 mM, 1000 mM) and temperature (4.5° C., 22° C., 37° C.). The pH and salt concentration were adjusted via overnight dialysis at 4° C. and their final concentration adjusted to 1.0 g/L.
It had been hypothesized that disulfide bonds might mediate the observed γ-crystallin aggregates. The DLS of the γ-crystallin proteins was also measured in 5 mM DTT, and in the presence of 1.0 g/L α-crystallin. […] Thus, this hypothesis was incorrect.
Further, the synthesized α-crystallin proteins were mixed with γ-crystallin proteins to determine if the chaperoning ability of α-crystallin disrupts the γ-crystallin aggregates. The α-A and α-B crystallins were each individually mixed with γD- or γS-crystallin in a molar ratio of 3:1, respectively, mimicking the ratio found in the human eye lens. All solutions were allowed to equilibrate for an hour at 4° C.

[3] = molecular target: T1, γS-crystallin (Homo sapiens, UniProt P22914); assay: Dynamic light scattering (DLS) of γS-crystallin, hydrodynamic radius of monomer and aggregate; conditions: γS modified with the agent
T1 construct: 6xHis (N); made in house; host or cells: M15pRep E. coli (pQe1 plasmid from King Labs, MIT)
T1 sequence (P22914 1-178): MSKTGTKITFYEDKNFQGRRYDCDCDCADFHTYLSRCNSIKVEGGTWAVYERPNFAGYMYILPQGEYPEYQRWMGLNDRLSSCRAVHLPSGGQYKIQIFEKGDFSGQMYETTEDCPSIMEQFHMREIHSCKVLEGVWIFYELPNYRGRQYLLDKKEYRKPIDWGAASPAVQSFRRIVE
Procedure: The scattering wave vector is defined as q=4πn sin (θ/2)/λ, where θ is the scattering angle, and λ=514.5, the wavelength of the argon laser in vacuum, and n is 1.33, the refractive index of water. The temperature of the sample was held at constant temperature of 4 to 37±0.1° C. by a circulating water bath. The correlation function was analyzed using CONTIN analysis [NT] times for the correlation functions at measured angles. […] The delay times (τ) were converted to Γ and graphed versus q^2. The slope of the fitted line is the diffusion coefficient (D). […] All solutions were filtered with 0.22 μm hydrophobic PVDF membranes (Fisher Scientific) into 10 mm diameter borosilicate glass tubes and sealed. Solutions were allowed to equilibrate for thirty minutes prior to measuring light scattering. […] The pH and salt concentration were adjusted via overnight dialysis at 4° C. and their final concentration adjusted to 1.0 g/L. […] The scattering wave vector is defined as q=4πn sin (θ/2)/λ, where θ is the scattering angle, and λ=514.5, the wavelength of the argon laser in vacuum, and n is 1.33, the refractive index of water. The temperature of the sample was held at constant temperature of 4 to 37±0.1° C. by a circulating water bath. The correlation function was analyzed using CONTIN analysis [NT] times for the correlation functions at measured angles. […] The delay times (τ) were converted to Γ and graphed versus q^2. The slope of the fitted line is the diffusion coefficient (D). […] All solutions were filtered with 0.22 μm hydrophobic PVDF membranes (Fisher Scientific) into 10 mm diameter borosilicate glass tubes and sealed. Solutions were allowed to equilibrate for thirty minutes prior to measuring light scattering.

Q: How did the “secondary structure of modified γ-crystallin (CD spectra)” value [1] turn out when `NCCOCCOCCOCCOCCC(=O)O` [CAPEG4] was run?
A: showed a similar trend to modifications made with PEG4 and PEG24

Q: What about the “aggregation of γ-crystallin modified with the agent (DLS)” value [2] of the same molecule?
A: prevented aggregation of proteins

Q: What about the Rh ([3]; fast mode (monomer), 37° C.) of the same molecule?
A: 3 nm

Q: What about the Rh ([3]; fast mode (monomer), 37° C., listed as CAPEG) of the same molecule?
A: 2.9 nm

Q: What about the Rh ([3]; fast mode (monomer, first Rh column), 22° C.) of the same molecule?
A: 2.8 nm

Q: What about the Rh ([3]; fast mode (monomer, first Rh column), 22° C., listed as CAPEG) of the same molecule?
A: 2.9 nm
